Laboratory results from patent publication EP4707280A1, “1,4-CINEOLE DERIVATIVE AND INTERMEDIATE THEREOF, HERBICIDE CONTAINING SAID DERIVATIVE AS ACTIVE INGREDIENT, METHOD FOR USING HERBICIDE, AND METHOD FOR PREPARING AGROCHEMICAL COMPOSITION” (HOKKO CHEMICAL INDUSTRY CO., LTD., priority 2023, dated 2024).

Key:
Assay type in all cases: in vivo
[1] = system: Echinochloa crus-galli var. formosensis; assay: Test Example 1: herbicidal effect test by soil application in paddy rice; details: Echinochloa crus-galli, soil, 336 h; 120 g active ingredient per 10 ares; applied immediately after sowing, flooded pots; 14 days after application; read-out: weed inhibition rate
Outline: (§1)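 Pre-emergence paddy soil application, 120 g a.i./10 a, emulsifiable concentrate diluted in water, applied by dropper right after sowing. Seeds (30/species) sown 0–1 cm in puddled, fertilized soil; flooded ~3 cm; glass greenhouse.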

Scirpus juncoides [2] = assay: as above; details: Schoenoplectiella juncoides, soil, 336 h; 120 g active ingredient per 10 ares; applied immediately after sowing, flooded pots; 14 days after application; read-out: weed inhibition rate
Outline: as §1

[3] = system: Echinochloa crus-galli var. formosensis; assay: Test Example 2: herbicidal effect test by application during growth period of paddy rice; details: Echinochloa crus-galli; 120 g per 10 ares; applied seven days after sowing, flooded pots; 14 days after application; read-out: weed inhibition rate
Outline: (§2)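 Paddy soil in flooded pots (water depth about 3 cm) was sown with weed seeds and kept in a glass greenhouse. Seven days after sowing, a diluted emulsifiable concentrate was applied by dropper at 120 g active ingredient per 10 ares. Weed inhibition was evaluated 14 days after application, in duplicate.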

Scirpus juncoides [4] = assay: as above; details: Schoenoplectiella juncoides; 120 g per 10 ares; applied seven days after sowing, flooded pots; 14 days after application; read-out: weed inhibition rate
Outline: as §2

Digitaria ciliaris [5] = assay: Test Example 3: herbicidal effect test by soil application in upland field; details: Digitaria ciliaris, 120 g per 10 ares, sprayed one day after sowing, 14 days after application, read-out: weed inhibition rate
Outline: (§3)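 Weed inhibition (%) was assessed 14 days after treatment, in duplicate per concentration group. Seeds had been mixed into the upper 1 cm of upland alluvial loam, and the soil surface was sprayed one day later with the diluted emulsifiable concentrate at 120 g active ingredient per 10 ares.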

Echinochloa crus-galli [6] = assay: as above; details: Echinochloa crus-galli, 120 g per 10 ares, sprayed one day after sowing, 14 days after application, read-out: weed inhibition rate
Outline: as §3

Digitaria ciliaris [7] = assay: Test Example 4: herbicidal effect test by stem and leaf treatment in upland field; details: Digitaria ciliaris; 120 g per 10 ares; sprayed seven days after sowing, upland soil; 14 days after application; read-out: weed inhibition rate
Echinochloa crus-galli [8] = assay: as above; details: Echinochloa crus-galli; 120 g per 10 ares; sprayed seven days after sowing, upland soil; 14 days after application; read-out: weed inhibition rate
[9] = system: Echinochloa crus-galli var. formosensis; assay: Test Example 5: herbicidal effect test by soil application in paddy rice (low dose); details: Echinochloa crus-galli, soil, 336 h; 7.5 g per 10 ares; applied immediately after sowing, flooded pots; 14 days after application; read-out: weed inhibition rate
Outline: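 Paddy-soil pots, weeds sown 0–1 cm deep and flooded to about 3 cm in a greenhouse. Emulsifiable concentrate diluted in water and dropped in right after sowing at 7.5 g active ingredient per 10 ares. Duplicates; effect scored 14 days after application.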

[10] = system: Echinochloa crus-galli var. formosensis; assay: Test Example 6: herbicidal effect test by application during growth period of paddy rice (low dose); details: Echinochloa crus-galli; 7.5 g per 10 ares; applied seven days after sowing, flooded pots; 14 days after application; read-out: weed inhibition rate
Outline: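 Puddled, fertilised paddy soil was sown with 30 seeds per species and flooded to about 3 cm. After 7 days in a glass greenhouse, the diluted emulsifiable concentrate went into the water by dropper at 7.5 g/10 a. Effect scored at 14 days.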

Digitaria ciliaris [11] = assay: Test Example 7: herbicidal effect test by soil application in upland field (low dose); details: Digitaria ciliaris, 7.5 g per 10 ares, sprayed one day after sowing, 14 days after application, read-out: weed inhibition rate
Outline: (§4)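 Upland alluvial loam pots, seeds mixed into top 1 cm of soil; one day after sowing, diluted emulsifiable concentrate sprayed on soil at 100 L/10 a, giving 7.5 g active ingredient/10 a. Duplicate pots; weed inhibition rate (%) scored 14 days after application.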

Echinochloa crus-galli [12] = assay: as above; details: Echinochloa crus-galli, 7.5 g per 10 ares, sprayed one day after sowing, 14 days after application, read-out: weed inhibition rate
Outline: as §4

Digitaria ciliaris [13] = assay: Test Example 8: herbicidal effect test by stem and leaf treatment in upland field (low dose); details: Digitaria ciliaris; 7.5 g per 10 ares; sprayed seven days after sowing, upland soil; 14 days after application; read-out: weed inhibition rate
Echinochloa crus-galli [14] = assay: as above; details: Echinochloa crus-galli; 7.5 g per 10 ares; sprayed seven days after sowing, upland soil; 14 days after application; read-out: weed inhibition rate

CC(C)[C@]12C[C@@H](OCc3ccccc3Br)[C@](C)(C[C@@H]1I)O2 [1-759, (1R,2S,4S,5R)-5-[(2-bromophenyl)methoxy]-2-iodo-1-isopropyl-4-methyl-7-oxabicyclo[2.2.1]heptane]
≥ 80%: pest or weed control at 1200 g/ha [1] | pest or weed control at 1200 g/ha (Scirpus juncoides [2]) | inhibition at 1200 g/ha [3] | inhibition at 1200 g/ha (Scirpus juncoides [4]) | inhibition at 1200 g/ha (Digitaria ciliaris [5]) | inhibition at 1200 g/ha (Echinochloa crus-galli [6]) | inhibition at 1200 g/ha (Digitaria ciliaris [7]) | inhibition at 1200 g/ha (Echinochloa crus-galli [8]) | inhibition at 75 g/ha [9] | inhibition at 75 g/ha [10] | inhibition at 75 g/ha (Digitaria ciliaris [11]) | inhibition at 75 g/ha (Echinochloa crus-galli [12]) | inhibition at 75 g/ha (Digitaria ciliaris [13]) | inhibition at 75 g/ha (Echinochloa crus-galli [14])

Cc1ccccc1COC1CC2(C(C)C)OC1(C)CC2I (stereo not drawn) [1-1409, 5-iodo-1-methyl-2-[(2-methylphenyl)methoxy]-4-isopropyl-7-oxabicyclo[2.2.1]heptane]
≥ 80%: pest or weed control at 1200 g/ha [1] | pest or weed control at 1200 g/ha (Scirpus juncoides [2]) | inhibition at 1200 g/ha [3] | inhibition at 1200 g/ha (Scirpus juncoides [4]) | inhibition at 1200 g/ha (Digitaria ciliaris [5]) | inhibition at 1200 g/ha (Echinochloa crus-galli [6]) | inhibition at 1200 g/ha (Digitaria ciliaris [7]) | inhibition at 1200 g/ha (Echinochloa crus-galli [8]) | inhibition at 75 g/ha [9] | inhibition at 75 g/ha [10] | inhibition at 75 g/ha (Digitaria ciliaris [11]) | inhibition at 75 g/ha (Echinochloa crus-galli [12]) | inhibition at 75 g/ha (Digitaria ciliaris [13]) | inhibition at 75 g/ha (Echinochloa crus-galli [14])

CC(C)[C@]12C[C@@H](OCc3cccs3)[C@](C)(C[C@@H]1I)O2 [1-788, (1R,2S,4S,5R)-2-iodo-1-isopropyl-4-methyl-5-(2-thienylmethoxy)-7-oxabicyclo[2.2.1]heptane]
≥ 80%: pest or weed control at 1200 g/ha [1] | pest or weed control at 1200 g/ha (Scirpus juncoides [2]) | inhibition at 1200 g/ha [3] | inhibition at 1200 g/ha (Scirpus juncoides [4]) | inhibition at 1200 g/ha (Digitaria ciliaris [5]) | inhibition at 1200 g/ha (Echinochloa crus-galli [6]) | inhibition at 1200 g/ha (Digitaria ciliaris [7]) | inhibition at 1200 g/ha (Echinochloa crus-galli [8]) | inhibition at 75 g/ha [9] | inhibition at 75 g/ha [10] | inhibition at 75 g/ha (Digitaria ciliaris [11]) | inhibition at 75 g/ha (Echinochloa crus-galli [12]) | inhibition at 75 g/ha (Digitaria ciliaris [13]) | inhibition at 75 g/ha (Echinochloa crus-galli [14])

Cc1cccc(C)c1CO[C@@H]1C[C@]2(C(C)C)O[C@@]1(C)C[C@@H]2I [1-777, (1R,2S,4S,5R)-5-[(2,6-dimethylphenyl)methoxy]-2-iodo-1-isopropyl-4-methyl-7-oxabicyclo[2.2.1]heptane]
≥ 80%: pest or weed control at 1200 g/ha [1] | pest or weed control at 1200 g/ha (Scirpus juncoides [2]) | inhibition at 1200 g/ha [3] | inhibition at 1200 g/ha (Scirpus juncoides [4]) | inhibition at 1200 g/ha (Digitaria ciliaris [5]) | inhibition at 1200 g/ha (Echinochloa crus-galli [6]) | inhibition at 1200 g/ha (Digitaria ciliaris [7]) | inhibition at 1200 g/ha (Echinochloa crus-galli [8]) | inhibition at 75 g/ha [9] | inhibition at 75 g/ha [10] | inhibition at 75 g/ha (Digitaria ciliaris [11]) | inhibition at 75 g/ha (Echinochloa crus-galli [12]) | inhibition at 75 g/ha (Digitaria ciliaris [13]) | inhibition at 75 g/ha (Echinochloa crus-galli [14])

CC(C)C12CC(OCc3ccccc3Cl)C(C)(CC1I)O2 (stereo not drawn) [1-1424, 5-[(2-chlorophenyl)methoxy]-2-iodo-1-isopropyl-4-methyl-7-oxabicyclo[2.2.1]heptane]
≥ 80%: pest or weed control at 1200 g/ha [1] | pest or weed control at 1200 g/ha (Scirpus juncoides [2]) | inhibition at 1200 g/ha [3] | inhibition at 1200 g/ha (Scirpus juncoides [4]) | inhibition at 1200 g/ha (Digitaria ciliaris [5]) | inhibition at 1200 g/ha (Echinochloa crus-galli [6]) | inhibition at 1200 g/ha (Digitaria ciliaris [7]) | inhibition at 1200 g/ha (Echinochloa crus-galli [8]) | inhibition at 75 g/ha [9] | inhibition at 75 g/ha [10] | inhibition at 75 g/ha (Digitaria ciliaris [11]) | inhibition at 75 g/ha (Echinochloa crus-galli [12]) | inhibition at 75 g/ha (Digitaria ciliaris [13]) | inhibition at 75 g/ha (Echinochloa crus-galli [14])

CC(C)C12CC(OCc3ccccc3)C(C)(CC1Br)O2 (stereo not drawn) [1-1342, 5-bromo-1-methyl-2-phenylmethoxy-4-isopropyl-7-oxabicyclo[2.2.1]heptane]
≥ 80%: pest or weed control at 1200 g/ha [1] | pest or weed control at 1200 g/ha (Scirpus juncoides [2]) | inhibition at 1200 g/ha [3] | inhibition at 1200 g/ha (Scirpus juncoides [4]) | inhibition at 1200 g/ha (Digitaria ciliaris [5]) | inhibition at 1200 g/ha (Echinochloa crus-galli [6]) | inhibition at 1200 g/ha (Digitaria ciliaris [7]) | inhibition at 1200 g/ha (Echinochloa crus-galli [8]) | inhibition at 75 g/ha [9] | inhibition at 75 g/ha [10] | inhibition at 75 g/ha (Digitaria ciliaris [11]) | inhibition at 75 g/ha (Echinochloa crus-galli [12]) | inhibition at 75 g/ha (Digitaria ciliaris [13]) | inhibition at 75 g/ha (Echinochloa crus-galli [14])
